For test [1], the system named is CCRF-CEM. Nature of the test: Cytotoxicity against human CCRF-CEM cells. In kind it is functional. Particulars: read-out: ED50 (the source's name).
Test [2] relates to MOLT-4. Kind of test: Cytotoxicity against human MOLT4 cells. Particulars: read-out: ED50 (the source's name). In kind it is functional.
Test [3] concerns HOP-62. Nature of the test: Cytotoxicity against human HOP62 cells. In kind it is functional. The following applies: read-out: ED50 (the source's name).
The subject of test [4] is NCI-H522. Nature of the test: Cytotoxicity against human NCI-H522 cells. The test is classed as functional. The following applies: read-out: ED50 (the source's name).
Test [5] relates to HCT-116. Kind of test: Cytotoxicity against human HCT116 cells. In kind it is functional. The following applies: read-out: ED50 (the source's name).
In test [6] the test system is SW-620. Nature of the test: Cytotoxicity against human SW620 cells. The following applies: read-out: ED50 (the source's name). The test is classed as functional.
For test [7], the system named is SF-268. Nature of the test: Cytotoxicity against human SF268 cells. In kind it is functional. The following applies: read-out: ED50 (the source's name).
Test [8] has as its system LOX IMVI. Kind of test: Cytotoxicity against human LOXIMVI cells. In kind it is functional. The following applies: read-out: ED50 (the source's name).
The test system of test [9] is Malme-3M. Nature of the test: Cytotoxicity against human MALME-3M cells. In kind it is functional. The following applies: read-out: ED50 (the source's name).
For test [10], the system named is IGROV-1. Nature of the test: Cytotoxicity against human IGROV1 cells. Particulars: read-out: ED50 (the source's name). The test is classed as functional.
For test [11], the system named is OVCAR-8. Kind of test: Cytotoxicity against human OVCAR8 cells. In kind it is functional. The following applies: read-out: ED50 (the source's name).
For test [12], the system named is ACHN. Kind of test: Cytotoxicity against human ACHN cells. In kind it is functional. The following applies: read-out: ED50 (the source's name).
Test [13] relates to UO-31. Nature of the test: Cytotoxicity against human UO31 cells. The test is classed as functional. Particulars: read-out: ED50 (the source's name).
The subject of test [14] is PC-3. Kind of test: Cytotoxicity against human PC3 cells. In kind it is functional. The following applies: read-out: ED50 (the source's name).
Test [15] concerns DU-145. Kind of test: Cytotoxicity against human DU145 cells. In kind it is functional. Particulars: read-out: ED50 (the source's name).
The test system of test [16] is MDA-MB-231. Kind of test: Cytotoxicity against human MDA-MB-231 cells. The test is classed as functional. Particulars: read-out: ED50 (the source's name).
In test [17] the test system is BT-549. Nature of the test: Cytotoxicity against human BT549 cells. The test is classed as functional. Particulars: read-out: ED50 (the source's name).
The test system of test [18] is T47D. Nature of the test: Cytotoxicity against human T47D cells. In kind it is functional. Particulars: read-out: ED50 (the source's name).
The test system of test [19] is Human immunodeficiency virus. Nature of the test: Antiviral activity against HIV in human H9 cells assessed as virus-induced cytopathic effect. The test is classed as functional, organism-based. In general terms: Protection from cytopathic effect is a common read-out in antiviral testing.
For test [20], the system named is SNB-75. Kind of test: Cytotoxicity against human SNB75 cells. The test is classed as functional. Particulars: read-out: ED50 (the source's name).

Structures are written as SMILES. In brackets after ≈: the same amount, converted by molar mass. Activity calls are given as the source filed them. No cut-off for these calls is given here.

Turning to `C=C1C(=O)O[C@H]2[C@H]1C[C@@H](O)/C(C)=C/CC[C@@]1(C)O[C@@H]21`, the EC50 was 0.84 µg/mL (≈ 3.18 µM) in test [1]; 0.94 µg/mL (≈ 3.56 µM) in test [2]; 1.32 µg/mL (≈ 4.99 µM) in [3]; 0.5 µg/mL (≈ 1.89 µM) in test [4]; 1.66 µg/mL (≈ 6.28 µM) in test [5]; 1.08 µg/mL (≈ 4.09 µM) in [6]. Moreover, the EC50 worked out at 10.3 µg/mL (≈ 39 µM) in [7]; 1.66 µg/mL (≈ 6.28 µM) in test [8]; 1.07 µg/mL (≈ 4.05 µM) in test [9]; 8.63 µg/mL (≈ 32.6 µM) in [10]; 4.07 µg/mL (≈ 15.4 µM) in test [11]; 1.91 µg/mL (≈ 7.23 µM) in test [12]. For the same compound, the EC50 came out at 7.63 µg/mL (≈ 28.9 µM) in test [13]; 11.6 µg/mL (≈ 44 µM) in [14]; 6.73 µg/mL (≈ 25.5 µM) in test [15]; 4.49 µg/mL (≈ 17 µM) in test [16]; 2.77 µg/mL (≈ 10.5 µM) in test [17]; 1.54 µg/mL (≈ 5.83 µM) in test [18]. The result in test [19] was inactive.

For `C=C1C(=O)O[C@H]2[C@H]1CC(=O)/C(C)=C/CC[C@@]1(C)O[C@@H]21`, the EC50 in test [1] was 0.05 µg/mL (≈ 0.191 µM); in test [2] it was 0.07 µg/mL (≈ 0.267 µM); in [3], 0.63 µg/mL (≈ 2.4 µM); in [4], 0.15 µg/mL (≈ 0.572 µM); in [5], 0.45 µg/mL (≈ 1.72 µM); in [6], 0.21 µg/mL (≈ 0.801 µM). The EC50 was found to be 1.73 µg/mL (≈ 6.6 µM) in [7]; 4.38 µg/mL (≈ 16.7 µM) in test [20]; 0.11 µg/mL (≈ 0.419 µM) in test [8]; 0.33 µg/mL (≈ 1.26 µM) in test [9]; 0.94 µg/mL (≈ 3.58 µM) in test [10]; 0.78 µg/mL (≈ 2.97 µM) in test [11]. The EC50 is 0.3 µg/mL (≈ 1.14 µM) in test [12]; 0.28 µg/mL (≈ 1.07 µM) in [13]; 0.9 µg/mL (≈ 3.43 µM) in [14]; 3.3 µg/mL (≈ 12.6 µM) in [15]; 0.17 µg/mL (≈ 0.648 µM) in test [16]; 0.34 µg/mL (≈ 1.3 µM) in test [17]. The EC50 in test [18] was found to be 0.45 µg/mL (≈ 1.72 µM). Besides, in test [19], the result was inactive.

For `C=C1C(=O)O[C@H]2[C@H]1C[C@H](O)/C(C)=C/CC[C@@]1(C)O[C@@H]21`, the EC50 in test [1] came to 0.8 µg/mL (≈ 3.03 µM); in test [2] it was 0.68 µg/mL (≈ 2.57 µM); in test [3] it was 4.57 µg/mL (≈ 17.3 µM); in [4], 0.45 µg/mL (≈ 1.7 µM); in test [5], 3.83 µg/mL (≈ 14.5 µM); in [6], 0.55 µg/mL (≈ 2.08 µM). Also, the EC50 came out at 7.76 µg/mL (≈ 29.4 µM) in [7]; 8.53 µg/mL (≈ 32.3 µM) in test [20]; 2.46 µg/mL (≈ 9.31 µM) in test [8]; 1.62 µg/mL (≈ 6.13 µM) in test [9]; 3.91 µg/mL (≈ 14.8 µM) in test [10]; 4.75 µg/mL (≈ 18 µM) in test [11]. For the same compound, the EC50 in [12] was found to be 2.21 µg/mL (≈ 8.36 µM); in test [13], 3.88 µg/mL (≈ 14.7 µM); in test [15], 5.6 µg/mL (≈ 21.2 µM); in test [16] it was 4.99 µg/mL (≈ 18.9 µM). Also, the outcome in test [19] was inactive.

For `C=C1C(=O)O[C@H]2[C@H]1C[C@@H](O)[C@@]1(C)O[C@@H]1CC[C@@]1(C)O[C@@H]21`, the EC50 in test [1] stood at 1.44 µg/mL (≈ 5.14 µM); in test [2], 1.67 µg/mL (≈ 5.96 µM); in test [3], 4.82 µg/mL (≈ 17.2 µM); in test [4], 1.53 µg/mL (≈ 5.46 µM); in test [5], 4.96 µg/mL (≈ 17.7 µM); in [6] it was 3.72 µg/mL (≈ 13.3 µM). Also, the EC50 in [7] worked out at 13.5 µg/mL (≈ 48.1 µM); in test [20] it was 20.8 µg/mL (≈ 74 µM); in [8] it was 3.7 µg/mL (≈ 13.2 µM); in test [9] it was 3.28 µg/mL (≈ 11.7 µM); in test [11] it was 9.72 µg/mL (≈ 34.7 µM); in test [12], 3.84 µg/mL (≈ 13.7 µM). The EC50 in test [13] amounted to 4.76 µg/mL (≈ 17 µM); in test [14], 7.59 µg/mL (≈ 27.1 µM); in test [15], 10.2 µg/mL (≈ 36.5 µM); in test [16], 5.35 µg/mL (≈ 19.1 µM). Besides, the result in [19] was inactive.

Take `C=C1C(=O)O[C@H]2[C@H]1C[C@H](O)[C@@]1(C)O[C@@H]1CC[C@@]1(C)O[C@@H]21`: the EC50 came to 2.43 µg/mL (≈ 8.67 µM) in test [1]; 2.83 µg/mL (≈ 10.1 µM) in test [2]; 5.74 µg/mL (≈ 20.5 µM) in test [3]; 0.78 µg/mL (≈ 2.78 µM) in [4]; 4.65 µg/mL (≈ 16.6 µM) in test [5]; 3.81 µg/mL (≈ 13.6 µM) in [6]. For the same compound, the EC50 came out at 12.1 µg/mL (≈ 43.2 µM) in test [7]; 22.5 µg/mL (≈ 80.3 µM) in [20]; 3.36 µg/mL (≈ 12 µM) in [9]; 4.17 µg/mL (≈ 14.9 µM) in [10]; 5.32 µg/mL (≈ 19 µM) in test [11]; 5.07 µg/mL (≈ 18.1 µM) in test [12]. Also, the EC50 in [13] came to 4.79 µg/mL (≈ 17.1 µM); in test [14] it was 4.98 µg/mL (≈ 17.8 µM); in test [15] it was 9.66 µg/mL (≈ 34.5 µM); in test [17], 3.86 µg/mL (≈ 13.8 µM); in [18], 5.4 µg/mL (≈ 19.3 µM). Moreover, the outcome in test [19] was inactive.

Values taken from ChEMBL document CHEMBL1158195, “Antitumor germacranolides from Anvillea garcinii” (1996).
